Consider two compounds from US11185527B2, “Methods and compositions relating to steroid hormone receptor-dependent cancers” (Wayne State University, priority 2017, dated 2021).

Data set [1] in a line: Intracellular concentration of compounds by LC-MS/MS (relative stability). Format: in vitro ADME. Particulars: media concentration of 2 uM compound. On the procedure:
The suspended cells were sonicated to cell lysate, and then 1000 μL ethyl acetate was added. The mixture was vortex-mixed for 15 minutes and centrifuged at 14000 rpm at […] for 15 min. 950 uL of the supernatant was transferred to a new 1.7 mL centrifuge tube, and dried under a steam of nitrogen at room temperature. The sample was then reconstituted with 100 μL 40% acetonitrile, and 5 μL was injected into the LC-MS/MS system. Measured concentrations were normalized to cell protein concentrations.

For data set [2] the following is noted: mouse, in vivo.
The subject of another data set is 22Rv1 CRPC cells. Description: Colony growth assay. In kind it is cell-based, human. Here is the method:
FIGS. 4A, 4B, 4C, 4D, 4E, 4F, 4G, and 4H relate to inhibition of AR-dependent PC/CRPC clonogenic survival and cell growth by KCI807 and comparison with enzalutamide. FIG. 4A is an image of 22Rv1 cells that were seeded in phenol red-free growth media and treated with the indicated concentration of KCI807, replenishing the treatments every 48h. Colonies were stained with crystal violet 10 days after plating. Treatments were conducted in triplicate. Representative images are shown. FIG. 4B is a graph showing data from replicate colony formation assays shown in FIG. 4A are plotted as a histogram. Each bar represents the average number of colonies for each triplicate treatment. Cells were trypsinized, and 1000 cells/well were seeded in poly-D-lysine coated 6-well plates in phenol red-free regular growth media. The cells were treated with the indicated concentration of KCI807, which was replenished every 48h. The cells were grown at 37° C. in 5% CO2 for 10 days until colonies-grew to the desired size in the untreated control wells. Colonies were fixed with methanol and stained with crystal violet. Each treatment was conducted in triplicate and the number of colonies was counted using the GelCount™ colony counter and a 350 size cutoff.

A further data set concerns BT474 cells. Description: Breast cancer cell growth, MTT assay. Format: cell-based. On the procedure: (§1) Twenty four hours after plating the cells, they were treated with the indicated concentrations of the compound.
(In general: Tetrazolium assays rely on reduction of a dye to a coloured formazan, in cell work by metabolically active cells.)

The test system of the next data set is T47D cells. Put plainly: Breast cancer cell growth, MTT assay. Format: cell-based. On the procedure: as §1
A further data set has as its system MCF-7 cells. Description: Breast cancer cell growth, MTT assay. In kind it is cell-based. Here is the method: as §1
Data set [3] concerns HEK293 (adenovirus transformed kidney fibroblasts), AR-negative. Put plainly: Cell monolayer growth assay (MTT). In kind it is cell-based. On the procedure:
FIG. 12C is a graph showing the effect of KCI807 on in vitro growth of AR-negative cell line HEK293 cells measured by the MTT assay. All values were plotted relative to the Day zero value.
Cells were trypsinized and 3000-4000 cells/well were seeded in 96-well plates coated with poly-D-lysine. The cells were seeded in phenol red-free medium supplemented with 10% FBS, 100 units/ml penicillin, 100 μg/ml streptomycin, 2 mM L-glutamine mixture and sodium pyruvate (1 mM) for LNCaP cells and phenol red-free medium supplemented with 10% FBS, 100 units/ml penicillin, 100 μg/ml streptomycin and 2 mM L-glutamine mixture for VCaP, 22Rv1, DU145, HeLa, HEK293 and H1650 cells. The cells were grown at 37° C. in 5% CO2. Twenty four hours after seeding in the 96-well plates, the cells were treated with the indicated concentration of KCI807 or DMSO (vehicle). The cells were re-treated on Day 3 by removing half the volume of medium and replacing it with fresh treated medium. Cell viability was determined using the MTT assay from day zero until day five. MTT (10 μL, 5 mg/mL) was added to each well and incubated for 2h at 37° C. The formazan crystal sediments were dissolved in 100 μL of DMSO, and the absorbance at 570 nm was measured using the BioTek Synergy 2 Microplate Reader (BioTek, Winooski, Vt.). The assay was conducted in sextuplicate wells and values were normalized to day zero.

In data set [4] the test system is PDX-PR011 tumor xenograft. Put plainly: PDX-PR011 patient-derived CRPC tumor xenograft in male SCID mice, tumor growth. Format: in vivo, mouse. To be noted: treatment from Day 1; KCI807 IP as for 22Rv1; enzalutamide oral 50 mg/Kg daily. Here is the method:
FIG. 5B is a graph showing results obtained when PDX-PR011 tumor xenografts were implanted sc into male SCID mice in both flanks. The vehicle control and KCI807 were administered as described for FIG. 5A with the exception that treatment was begun on Day 1 after tumor implantation. Tumor volumes were monitored as described herein.
FIG. 14 is a graph showing results obtained when PDX-PR011 tumor xenografts were implanted sc into male SCID mice in both flanks. […] Treatment was begun on Day 1 after tumor implantation.
Background: Xenograft models place foreign cells or tissue in a host animal.

Data set [5] can be described thus: Metabolite identification in serum of treated mice by LC-MS/MS. Format: in vivo, mouse. To be noted: 250 mg/kg every other day. From the text:
To identify potential metabolites of KCI807 in mice, serum and liver samples collected from the control (untreated) and KCI807-treated mice were subjected to the LC-MS/MS analysis. Sample preparation and chromatographic separation were the same as that described above. Column eluents of the control and drug-treated samples were surveyed using different scan modes including full scan, product scan, and multiple reaction monitoring scan. […] The […] was operated under the optimized condition as for KCI807, and hypothesized theoretical mass transitions for potential metabolites were monitored (see Tables 3 and 4).
If a chromatographic peak monitored at the theoretical transition(s) corresponding to a particular metabolite was identified in the drug-treated samples but not in the control (untreated) samples, this metabolite was identified as a metabolite of KCI807, see FIG. 20.
Serum from mice that were injected with 250 mg/kg of 5,3′-Dihydroxyflavone every other day for two weeks was analyzed to identify potential metabolites by LCMS using hypothesized mass transitions. […]

Structures are written as SMILES.

`O=c1cc(-c2cccc(O)c2)oc2cccc(O)c12` [KCI807, 5,3′-dihydroxyflavone]: the “intracellular concentration between 1h and 6h” value in data set [1] is given as “unchanged”. Further, the “symptoms during the study, 22Rv1 xenograft” value in data set [2] is given as “asymptomatic”. The “weight loss (in words), 22Rv1 xenograft” value in [2] is “did not show appreciable weight loss”. Besides, the “colony growth inhibition (in words)” value with 22Rv1 CRPC cells (22Rv1, beyond 125 nM compound) is reported as “virtually completely inhibited”. Besides, the IC50 in the data set on 22Rv1 CRPC cells (Homo sapiens, 22Rv1, 10 days, treatment replenished every 48h, read-out: IC50 of colony growth inhibition) turned out to be 33.1 nM. Besides, the “growth of BT474 cells” value in the data set with BT474 cells is recorded as “growth inhibitory”. Moreover, the “growth of T47D cells” value in the data set with T47D cells is given as “growth inhibitory”. In the data set with MCF-7 cells, the “growth of MCF-7 cells” value is listed as “growth inhibitory”. For the same compound, the “growth of HEK293 cells” value in data set [3] is given as “did not appreciably affect the growth”. Moreover, in data set [4], the “tumor growth inhibition, PDX-PR011 xenograft” value was “significantly inhibited”. The “major metabolites / compounds identified in plasma or serum” value in data set [5] was “glucuronidation and other modifications at the 3′ position”; in [5] (listed as 5,3′-Dihydroxyflavone) it was “Unmetabolized compound and a single glucuronide metabolite modified at the 3′-OH position”.
With `CNC(=O)c1ccc(N2C(=S)N(c3ccc(C#N)c(C(F)(F)F)c3)C(=O)C2(C)C)cc1F` [enzalutamide], the “tumor growth inhibition, PDX-PR011 xenograft” value in [4] is reported as “not inhibited”.

For orientation: IC50 means the concentration at which inhibition is half-maximal.
